# Measurements as given in patent US8003670B2, “Aminoalkoxy aryl sulfonamide compounds and their use as 5-HT6 ligands” (Suven Life Sciences Limited, priority 2007, dated 2011).
# Counter-ions that a name gives are not always drawn.
# Target: T1, 5-HT6 receptor (Homo sapiens, UniProt P50406)
# Experiment: not given
# Settings: literature; cited from earlier work
# T1 sequence (P50406 whole entry): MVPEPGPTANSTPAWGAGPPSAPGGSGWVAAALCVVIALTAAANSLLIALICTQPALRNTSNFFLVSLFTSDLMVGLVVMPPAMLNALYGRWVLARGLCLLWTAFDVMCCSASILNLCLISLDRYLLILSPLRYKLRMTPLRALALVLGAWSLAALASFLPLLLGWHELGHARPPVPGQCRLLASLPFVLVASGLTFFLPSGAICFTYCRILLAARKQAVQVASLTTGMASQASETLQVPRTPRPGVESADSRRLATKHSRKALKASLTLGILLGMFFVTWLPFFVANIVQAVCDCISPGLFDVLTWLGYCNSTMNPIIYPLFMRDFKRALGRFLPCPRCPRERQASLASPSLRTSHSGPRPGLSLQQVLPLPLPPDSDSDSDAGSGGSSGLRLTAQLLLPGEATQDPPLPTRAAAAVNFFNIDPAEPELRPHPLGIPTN
row,SMILES,Affinity for the 5-HT6 receptor (in words)
1,CN1CCN2c3ccccc3Cc3ccccc3C2C1 (stereo not drawn) [mianserin],high affinity
2,CN(C)CCC=C1c2ccccc2CCc2ccccc21 [amitriptyline],high affinity

# Test system: animal models for schizophrenia
# Experiment: not given
# Settings: literature (Pouzet et al. 2002); cited from earlier work
row,SMILES,Activity in animal tests related to positive or negative symptoms of schizophrenia
1,"COc1ccc(NS(=O)(=O)c2sc3ccc(Cl)cc3c2C)cc1N1CCNCC1 [SB-271046, 5-Chloro-N-(4-methoxy-3-piperazin-1-ylphenyl)-3-methyl-2-benzothiophenesulfonamide]",inactive

# Test system: not given
# Experiment: not given
# Settings: not given
row,melting point [°C],SMILES
1,73.2 to 74.5,"CC(C)c1ccc(S(=O)(=O)n2ccc3cc(F)ccc32)cc1OC1CCN(C)CC1 [Example 53, 5-Fluoro-1-[4′-isopropyl-3′-(1-methylpiperidin-4-yloxy)benzenesulfonyl]-1H-indole]"
2,133.2 to 134.5,"CCc1ccc(S(=O)(=O)n2cc(Br)c3cc(F)ccc32)cc1OC1CCN(C)CC1 [Example 67, 3-Bromo-5-fluoro-1-[4′-ethyl-3′-(1-methylpiperidin-4-yloxy)benzenesulfonyl]-1H-indole]"
3,127.2 to 128,"COc1ccc(S(=O)(=O)n2ccc3cc(Br)ccc32)cc1OC1CCN(C)CC1 [Example 63, 5-Bromo-1-[4′-methoxy-3′-(1-methylpiperidin-4-yloxy)benzenesulfonyl]-1H-indole]"
4,112 to 115,"COc1ccc(S(=O)(=O)n2ccc3ccc(Cl)cc32)cc1OC1CCN(C)CC1 [Example 62, 6-Chloro-1-[4′-methoxy-3′-(1-methylpiperidin-4-yloxy)benzenesulfonyl]-1H-indole]"
5,258.3 to 259.5,Cl.O=S(=O)(c1ccc(Cl)c(OC2CCNCC2)c1)n1ccc2ccc(Cl)cc21
6,289.9 to 291.5,CCc1ccc(S(=O)(=O)n2cc(Br)c3cc(F)ccc32)cc1OC1CCNCC1.Cl
7,201.46 to 204.21,CCc1ccc(S(=O)(=O)n2ccc3cc(F)ccc32)cc1OC1CCNCC1.Cl
8,73.2 to 74.5,"COc1ccc2c(c1)c(C)cn2S(=O)(=O)c1ccc(C(C)C)c(OC2CCN(C)CC2)c1 [Example 61, 5-Methoxy-3-methyl-1-[4′-isopropyl-3′-(1-methylpiperidin-4-yloxy)benzenesulfonyl]-1H-indole]"
9,231.2 to 232.7,"COc1ccc2c(ccn2S(=O)(=O)c2ccc(OC)c(OC3CCNCC3)c2)c1.Cl [Example 56, 5-Methoxy-1-[4′-methoxy-3′-(piperidin-4-yloxy)benzenesulfonyl]-1H-indole hydrochloride]"

# Target: T1, 5-HT6 receptor
# Experiment: Binding assay for human 5-HT6 receptor ([3H]LSD radioligand)
# Set-up: expressed in transfected cells; host or cells: HEK293
# Settings: 100 nM test compound; human recombinant receptor in HEK293 cells; [3H]LSD 1.5 nM; read-out: Radioligand binding data at 5-HT6 R (h) % Inhibition of specific binding at 100 nM
# Protocol: Compounds can be tested according to the following the procedures.
# Receptor source: Human recombinant expressed in HEK293 cells
# Radioligand: [^3H]LSD (60-80 Ci/mmol)
# Final ligand concentration—[1.5 nM]
# Non-specific determinant: Methiothepin mesylate—[0.1 μM]
# Reference compound: Methiothepin mesylate
# Positive control: Methiothepin mesylate
# Reactions were carried out in […] TRIS-HCl (pH 7.4) containing […] MgCl2, 0.5 mM EDTA for […] at 37° C. The reaction was terminated by rapid vacuum filtration onto glass fiber filters. Radioactivity trapped onto the filters was determined and compared to control values in order to ascertain any interactions of test compound(s) with the cloned serotonin 5-HT6 binding site.
# Mol. Pharmacol. (43): 320-327 (1993).
row,inhibition at 0.1 µM [%],SMILES
1,58.2,"COc1ccc2c(ccn2S(=O)(=O)c2cccc(OC3CCN(C)CC3)c2)c1 [Example 9, 5-Methoxy-1-[3′-(1-methylpiperidin-4-yloxy)benzenesulfonyl]-1H-indole]"
2,66.9,"CC(C)c1ccc(S(=O)(=O)n2ccc3cc(F)ccc32)cc1OC1CCN(C)CC1 [Example 53, 5-Fluoro-1-[4′-isopropyl-3′-(1-methylpiperidin-4-yloxy)benzenesulfonyl]-1H-indole]"
3,99.7,"Cc1ccc(S(=O)(=O)n2cc(C)c3ccccc32)cc1OC1CCN(C)CC1 [Example 54, 3-Methyl-1-[4′-methyl-3′-(1-methylpiperidin-4-yloxy)benzenesulfonyl]-1H-indole]"
4,89,"CCc1ccc(S(=O)(=O)n2ccc3cc(OC)ccc32)cc1OC1CCN(C)CC1 [Example 55, 5-Methoxy-1-[4-ethyl-3-(1-methylpiperidin-4-yloxy)benzenesulfonyl]-1H-indole]"
5,89.4,"Cc1ccc(S(=O)(=O)n2ccc3cc(F)ccc32)cc1OC1CCN(C)CC1 [Example 24, 5-Fluoro-1-(4′-methyl-3′-(1-methylpiperidin-4-yloxy)benzenesulfonyl)-1H-indole hydrochloride]"
6,61.7,"CN1CCC(Oc2cccc(S(=O)(=O)n3ccc4cc(F)ccc43)c2)CC1 [Example 8, 5-Fluoro-1-[3′-(1-methylpiperidin-4-yloxy)benzenesulfonyl]-1H-indole]"
7,31.5,"COc1ccc2c(ccn2S(=O)(=O)c2ccc(C(C)C)c(OC3CCN(C)CC3)c2)c1 [Example 52, 5-Methoxy-1-[4′-isopropyl-3′-(1-methylpiperidin-4-yloxy)benzenesulfonyl]-1H-indole]"
8,89.8,"CN1CCC(Oc2cc(S(=O)(=O)n3ccc4cc(F)ccc43)ccc2Cl)CC1 [Example 59, 5-Fluoro-1-[4′-chloro-3′-(1-methylpiperidin-4-yloxy)benzenesulfonyl]-1H-indole]"
9,88.6,"COc1ccc2c(ccn2S(=O)(=O)c2ccc(OC)c(OC3CCNCC3)c2)c1.Cl [Example 56, 5-Methoxy-1-[4′-methoxy-3′-(piperidin-4-yloxy)benzenesulfonyl]-1H-indole hydrochloride]"
10,91.6,"COc1ccc(S(=O)(=O)n2ccc3cc(F)ccc32)cc1OC1CCN(C)CC1 [Example 58, 5-Fluoro-1-[4′-methoxy-3′-(1-methylpiperidin-4-yloxy)benzenesulfonyl]-1H-indole]"

# Same assay, conditions: human recombinant receptor in HEK293 cells; [3H]LSD 1.5 nM; 37° C.; read-out: Radioligand binding data at 5-HT6 R (h) Ki
row,Ki [nM],SMILES
1,1.57,"Cc1ccc(S(=O)(=O)n2ccc3ccc(Cl)cc32)cc1OCCN(C)C [Example 15, 6-Chloro-1-[4′-methyl-3′-(N,N-dimethylaminoethoxy)benzenesulfonyl]-1H-indole]"
2,5.44,"CCc1ccc(S(=O)(=O)n2ccc3cc(F)ccc32)cc1OCCN(C)C [Example 30, 1-[4′-Ethyl-3′-(N,N-dimethylaminoethoxy)benzenesulfonyl]-5-fluoro-1H-indole]"
3,11.8,"Cc1ccc(S(=O)(=O)n2ccc3cc(Br)ccc32)cc1OCCCN(C)C [Example 18, 5-Bromo-1-[4′-Methyl-3′-(N,N-dimethylaminopropoxy)benzenesulfonyl]-1H-indole]"
4,2.75,"Cc1ccc(S(=O)(=O)n2ccc3ccccc32)cc1OCCN(C)C [Example 10, 1-[4′-Methyl-3′-(N,N-dimethylaminoethoxy)benzenesulfonyl]-1H-indole]"
5,13.6,"Cc1ccc(S(=O)(=O)n2ccc3c(Cl)cccc32)cc1OCCCN(C)C [Example 79, 4-Chloro-1-[4′-Methyl-3′-(N,N-dimethylaminopropoxy)benzenesulfonyl]-1H-indole]"
6,12.5,"Cc1ccc(S(=O)(=O)n2ccc3cc(F)ccc32)cc1OCCCN(C)C [Example 17, 5-Fluoro-1-[4′-Methyl-3′-(N,N-dimethylaminopropoxy)benzenesulfonyl]-1H-indole]"
7,11.2,"COc1ccc2c(ccn2S(=O)(=O)c2ccc(C)c(OCCN(C)C)c2)c1 [Example 13, 1-[4′-Methyl-3′-(N,N-dimethylaminoethoxy)benzenesulfonyl]-5-methoxy-1H-indole]"
8,12.4,"CCOc1ccc2c(ccn2S(=O)(=O)c2ccc(C)c(OCCCN(C)C)c2)c1 [Example 20, 5-Ethoxy-1-[4′-methyl-3′-(N,N-dimethylaminopropoxy)benzenesulfonyl]-1H-indole]"
9,30.9,"COc1ccc2c(ccn2S(=O)(=O)c2ccc(C)c(OCCCN(C)C)c2)c1 [Example 19, 1-[4′-Methyl-3′-(N,N-dimethylaminopropoxy)benzenesulfonyl]-5-methoxy-1H-indole]"
10,35.2,"CCc1ccc(S(=O)(=O)n2ccc3ccccc32)cc1OCCCN(C)C [Example 31, 1-[4′-Ethyl-3′-(N,N-dimethylaminopropoxy)benzenesulfonyl]-1H-indole]"
11,7.55,"CCc1ccc(S(=O)(=O)n2ccc3cc(Br)ccc32)cc1OCCCN(C)C [Example 32, 5-Bromo-1-[4′-Ethyl-3′-(N,N-dimethylaminopropoxy)benzenesulfonyl]-1H-indole]"
12,13.1,"Cc1ccc(S(=O)(=O)n2ccc3ccc(Cl)cc32)cc1OCCCN(C)C [Example 21, 6-Chloro-1-[4′-methyl-3′-(N,N-dimethylaminopropoxy)benzenesulfonyl]-1H-indole]"
13,1.9,"CCc1ccc(S(=O)(=O)n2ccc3ccccc32)cc1OCCN(C)C [Example 26, 1-[4′-Ethyl-3′-(N,N-dimethylaminoethoxy)benzenesulfonyl]-1H-indole]"
14,1.86,"Cc1ccc(S(=O)(=O)n2ccc3ccccc32)cc1OCCCN(C)C [Example 16, 1-[4′-Methyl-3′-(N,N-dimethylaminopropoxy)benzenesulfonyl]-1H-indole]"
15,18.8,"CCc1ccc(S(=O)(=O)n2ccc3cc(F)ccc32)cc1OCCCN(C)C [Example 35, 1-[4′-Ethyl-3′-(N,N-dimethylaminopropoxy)benzenesulfonyl]-5-fluoro-1H-indole]"
16,5.8,"CCc1ccc(S(=O)(=O)n2ccc3ccc(Cl)cc32)cc1OCCCN(C)C [Example 33, 1-[4′-Ethyl-3′-(N,N-dimethylaminopropoxy)benzenesulfonyl]-6-chloro-1H-indole]"
17,28.3,"Cc1ccc(S(=O)(=O)n2ccc3cc(Br)ccc32)cc1OCCN(C)C [Example 12, 5-Bromo-1-[4′-methyl-3′-(N,N-dimethylaminoethoxy)benzenesulfonyl]-1H-indole]"
18,13.9,"CC(C)c1ccc(S(=O)(=O)n2ccc3ccccc32)cc1OCCN(C)C [Example 36, 1-[4′-Isopropyl-3′-(N,N-dimethylaminoethoxy)benzenesulfonyl]-1H-indole]"
19,5.87,"Cc1ccc(S(=O)(=O)n2ccc3cc(F)ccc32)cc1OCCN(C)C [Example 11, 5-Fluoro-1-[4′-methyl-3′-(N,N-dimethylaminoethoxy)benzenesulfonyl]-1H-indole]"
20,62.5,"COc1ccc2c(ccn2S(=O)(=O)c2ccc(C(C)C)c(OCCCN(C)C)c2)c1 [Example 43, 1-[4′-Isopropyl-3′-(N,N-dimethylaminopropoxy)benzenesulfonyl]-5-Methoxy-1H-indole]"
